Reference: the NIST ThermoML archive (doi:10.1016/j.tca.2013.08.031)

Conditions: for mass density: isochoric method

CCC(C)O (centres undefined) [butan-2-ol]
Conditions | Critical density [kg/m3] | Critical temperature [K] | mass density [kg/m3]
306.95 K, Liquid | – | – | 794.06
335.35 K, Liquid | – | – | 769.05
367.55 K, Liquid | – | – | 735.98
408.51 K, Liquid | – | – | 683.53
433.35 K, Liquid | – | – | 648.53
463.85 K, Liquid | – | – | 598.18
492.87 K, Liquid | – | – | 538.17
504.95 K, Gas | – | – | 76.44
514.26 K, Gas | – | – | 95.93
515.15 K, Liquid | – | – | 474.07
522.2 K, Gas | – | – | 117
527.92 K, Gas | – | – | 142.27
529.41 K, Liquid | – | – | 403.55
533.73 K, Gas | – | – | 184.89
534.55 K, Liquid | – | – | 347.06
534.68 K, Gas | – | – | 198.25
535.83 K, Gas | – | – | 245.67
535.83 K, Liquid | – | – | 301.19
535.89 K, Liquid | – | – | 286.65
535.93 K, Liquid | – | – | 284.93
535.94 K, Liquid | – | – | 279.19
535.95 K, Liquid | – | – | 276.45
Liquid, DSC | 276.4 | – | –
Liquid, DTA | – | 535.95 | –
